According to PMC5219620 (International Journal for Parasitology: Drugs and Drug …, 2016):

Tested on: L6 cells
Assay: AlamarBlue in vitro compound toxicity in L6 cells
Format: cell-based, rat
Conditions: upper bound of TI over T. copemani G1, G2 and T. cruzi

| SMILES | Therapeutic index (TI), in general over all trypanosomes tested |
| --- | --- |
| Nc1nc(N)nc(Nc2ccc([As]3SCC(CO)S3)cc2)n1 (centres unmarked) [Melarsoprol, (2-(4-(4,6-diamino-1,3,5-triazin-2-ylamino)phenyl)-1,3,2-dithiarsolan-4-yl)methanol] | < 12.1 |
| CCCCCCCCCCCCCCCCOP(=O)([O-])OCC[N+](C)(C)C [Miltefosine, hexadecylphosphocholine] | < 2.4 |
